The values that follow come from publication PMC6530907 (Biochemistry, 2019).

Values after ≈ are worked out from the molar mass of the structure shown. A value given as a limit tells only on which side of the number the result lay.

The test system of one series is Msm ΔEM-pMbtAtb. Nature of the series: microbe, parasite or virus in culture. Format: cell-based, Mycobacterium smegmatis. To be noted: for MIC potency compared to 1 (decrease): Fe-limiting media.
In series [1] the target is T1, MbtAtb (H10MbtA^opt) (Mycobacterium tuberculosis, UniProt P71716). It counts as biochemical.
The target in a further series is H10MbtA^opt (Mycobacterium tuberculosis, UniProt P71716). It counts as biochemical.
Series [2] deals with Mtb. Conditions: monotherapy at 5.6 or 16.7 mg/kg; cited from earlier work.
The subject of the next series is Msm ΔM. It counts as cell-based, Mycobacterium smegmatis. To be noted: GASTD+Fe medium.
In the next series the test system is Msm ΔE. Nature of the series: microbe, parasite or virus in culture. Format: cell-based, Mycobacterium smegmatis. To be noted: GASTD medium (Fe-limiting).
The subject of series [3] is Mtb. Conditions: cited from earlier work.
Another series concerns PPT-PNP coupling system. It counts as biochemical.
In another series the test system is Msm WT. Nature of the series: Growth inhibition assay. It counts as cell-based, Mycobacterium smegmatis. Conditions: GASTD+Fe medium.
The next series concerns mammalian cells. To be noted: cited from earlier work.
The conditions of series [4]: mouse; cited from earlier work.
Series [5] concerns the target T1, MbtAtb (H10MbtA^opt). It counts as biochemical. Conditions: Kiapp increased linearly with [S].
Another series concerns MbtAtb. To be noted: cited from earlier work; for Ki: read-out: Kiapp.
The target of series [6] is T1, MbtAtb (H10MbtA^opt). It counts as biochemical. Conditions: read-out: IC50 (H10MbtA^opt-dependent signal, salicyl-AMS fragments).

T1 sequence (P71716 whole entry, looked up): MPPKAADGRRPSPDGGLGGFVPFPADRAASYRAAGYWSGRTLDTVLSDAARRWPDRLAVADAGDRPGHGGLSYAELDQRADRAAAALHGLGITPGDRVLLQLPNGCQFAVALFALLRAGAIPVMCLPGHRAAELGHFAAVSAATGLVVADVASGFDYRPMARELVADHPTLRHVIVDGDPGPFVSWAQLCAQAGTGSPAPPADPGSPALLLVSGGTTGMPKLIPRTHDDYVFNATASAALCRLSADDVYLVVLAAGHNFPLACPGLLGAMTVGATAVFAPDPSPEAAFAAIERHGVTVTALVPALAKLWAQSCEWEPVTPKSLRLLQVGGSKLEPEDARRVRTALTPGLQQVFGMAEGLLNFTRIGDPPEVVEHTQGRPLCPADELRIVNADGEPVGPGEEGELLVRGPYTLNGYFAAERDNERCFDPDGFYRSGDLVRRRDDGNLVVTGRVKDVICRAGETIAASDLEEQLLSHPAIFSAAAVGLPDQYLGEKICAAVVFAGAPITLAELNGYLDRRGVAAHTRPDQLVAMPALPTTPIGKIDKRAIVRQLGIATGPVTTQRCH
Sequence of H10MbtA^opt (P71716 whole entry, looked up): as above

In the case of `Nc1nc(-c2ccccc2)nc2c1ncn2C1OC(COS(=O)(=O)NC(=O)c2ccccc2O)C(O)C1O` (stereo not shown) [3a, salicyl-2-Ph-AMS], in the series with Msm ΔEM-pMbtAtb, the “MIC potency compared to 1 (decrease)” value is “no statistically significant difference”.

For the compound `Nc1nc(Nc2ccccc2)nc2c1ncn2C1OC(COS(=O)(=O)NC(=O)c2ccccc2O)C(O)C1O` (stereo not shown) [3b, salicyl-2-NHPh-AMS], in the series on Msm ΔEM-pMbtAtb, the “MIC potency compared to 1 (decrease)” value was “no statistically significant difference”.

As for `Nc1ncnc2c1ncn2[C@@H]1O[C@H](CNS(=O)(=O)NC(=O)c2ccccc2O)[C@@H](O)[C@H]1O` [4a, salicyl-AMSN], in the series on Msm ΔEM-pMbtAtb, the “MIC potency compared to 1 (decrease)” value is on record as “no statistically significant difference”.

Regarding `CNc1ncnc2c1ncn2[C@@H]1O[C@H](COS(=O)(=O)NC(=O)c2ccccc2O)[C@@H](O)[C@H]1O` [5a, salicyl-6-N-Me-AMS], the “MIC potency compared to 1 (decrease)” value in the series with Msm ΔEM-pMbtAtb was “no statistically significant difference”. In addition, on MbtAtb (H10MbtA^opt) [1], the “Kiapp higher than that of salicyl-AMS (1)” value (“Kiapp higher than that” below) is reported as “≈ 5.5 fold”, the “decrease in tR compared with salicyl-AMS (1)” value (“decrease in tR” below) is listed as “≈ 0.5 fold”, the “increase in koff compared with salicyl-AMS (1)” value (from here on “increase in koff”) was “≈ 2 fold” and the “konapp lower than that of salicyl-AMS (1)” value (“konapp lower than that” for short) is on record as “≈ 2.5 fold”.

On to `O=C(NS(=O)(=O)OC[C@H]1O[C@@H](n2cnc3c(NC4CC4)ncnc32)[C@H](O)[C@@H]1O)c1ccccc1O` [5b, salicyl-6-N-c-Pr-AMS], for which the “MIC potency compared to 1 (decrease)” value in the series on Msm ΔEM-pMbtAtb turned out to be 6 fold. For the same compound, on MbtAtb (H10MbtA^opt) [1], the “Kiapp higher than that” value was “≈ 5.5 fold”, the “decrease in tR” value is reported as “≈ 0.5 fold”, the “increase in koff” value is reported as “≈ 2 fold” and the “konapp lower than that” value was “≈ 2.5 fold”.

With `Nc1ncnc2c1ncn2[C@@H]1O[C@H](COP(=O)(O)OP(=O)(O)OP(=O)(O)O)[C@@H](O)[C@H]1O` [ATP], on H10MbtA^opt, the KmATP worked out at 13.0 ± 1.3 µM and the “kcatsal (ATP as the variable substrate)” value worked out at 0.0193 ± 0.00067 s⁻¹.

As for `Nc1ncnc2c1ncn2[C@@H]1O[C@H](COS(=O)(=O)NC(=O)c2ccccc2O)[C@@H](O)[C@H]1O` [compound 1, 5´-O-[N-salicylsulfamoyl]adenosine], the “Mtb growth in the mouse lung” value in the series on Mtb [2] is on record as “significant reduction of Mtb growth in the mouse lung”. Further, the MIC in the series on Msm ΔM is over 1000 µg/mL; with Msm ΔE it was 0.5 to 1 µg/mL; with Msm ΔE (Mycolicibacterium smegmatis) it was 0.5 to 1 µg/mL (≈ 1.07 to 2.14 µM); in the series with Mtb [3] (Fe-limiting medium, comparable inoculum), 0.1 to 0.5 µg/mL; against Msm WT, over 1000 µg/mL; with Msm ΔEM-pMbtAtb (GASTD medium (Fe-limiting), listed as salicyl-AMS) it was 0.5 to 1.0 µg/mL. Further, the MIC is > 1,000 µg/ml against Msm ΔEM-pMbtAtb (GASTD+Fe medium (Fe-rich)); 0.5 to 1 µg/mL (≈ 1.07 to 2.14 µM) in the series with Msm ΔEM-pMbtAtb (Mycolicibacterium smegmatis, GASTD medium (Fe-limiting)); over 1000 µg/mL in the series with Msm ΔEM-pMbtAtb (Mycolicibacterium smegmatis, GASTD+Fe medium (Fe-rich)). Besides, in the series with PPT-PNP coupling system, the “effect on the PPT-PNP coupling system” value is listed as “did not affect”. For the same compound, the “cytotoxicity against mammalian cells” value in the series with mammalian cells is “not cytotoxic”. Also, in series [4], the “doses with in vivo toxicity” value was at least 16.7 mg/kg. In addition, the “mechanism of inhibition (kobs vs inhibitor concentration)” value at MbtAtb (H10MbtA^opt) [1] (linear kobs vs [I]) is reported as “static, slow-onset mechanism of inhibition”. Further, the “inhibition mechanism with respect to both MbtAtb substrates” value against MbtAtb (H10MbtA^opt) [5] is reported as “competitive inhibition mechanism”.

As to `Nc1ncnc2c1ncn2[C@H]1C[C@H](O)[C@@H](COS(=O)(=O)NC(=O)c2ccccc2O)O1` [compound 2, salicyl-2´-dAMS], the “decrease in Kiapp relative to salicyl-AMS (1)” value in the series with MbtAtb (ATP-PPi assay) was 0.5 fold. In addition, the “MIC potency compared to 1 (decrease)” value against Msm ΔEM-pMbtAtb is given as 6 fold. Besides, on MbtAtb (H10MbtA^opt) [1], the “worsening of the kinetic parameters relative to salicyl-AMS (1)” value is recorded as at most 2 fold.

With `COc1ncnc2c1ncn2[C@@H]1O[C@H](CNS(=O)(=O)NC(=O)c2ccccc2O)[C@@H](O)[C@H]1O` [compound 6, salicyl-6-MeO-AMSN], the “MIC potency compared to 1 (decrease)” value against Msm ΔEM-pMbtAtb was found to be 6 fold. Further, at MbtAtb (H10MbtA^opt) [1], the “Kiapp higher than that” value is given as 10 fold, the “decrease in tR” value is listed as “≈ 0.5 fold”, the “increase in koff” value is listed as “≈ 2 fold” and the “konapp lower than that” value is on record as 6 fold.

For `O=C(NS(=O)(=O)O)c1ccccc1O` [compound 8, salicyl-sulfamate], the IC50 (in general, the concentration that inhibits the measured activity by half) on MbtAtb (H10MbtA^opt) [6] was about 1000 µM.

Turning to `O=C(NS(=O)(=O)OCC1OC(n2cnc3c(=O)[nH]cnc32)C(O)C1O)c1ccccc1O` (stereo not shown) [compound 11, salicyl-IMS], in the series on Mtb [3], the “Mtb MIC” value is over 100 µM. At MbtAtb, the Ki is 0.8 µM.

In the case of `CN(C)c1ncnc2c1ncn2C1OC(COS(=O)(=O)NC(=O)c2ccccc2O)C(O)C1O` (stereo not shown) [compound 12, salicyl-6-N,N-diMe-AMS], the “Mtb MIC” value with Mtb [3] is reported as 50 µM. Moreover, at MbtAtb, the Ki is 0.38 µM.

On to `O=C(O)c1ccccc1O` [salicylic acid], for which the Kmsal at H10MbtA^opt is 0.31 ± 0.003 µM.

Consider salicyl-AMSNMe [4b], for which the “MIC potency compared to 1 (decrease)” value with Msm ΔEM-pMbtAtb is “indistinguishable”. Also, the “improvement in Kiapp of 4b versus 4a” value at MbtAtb (H10MbtA^opt) [1] is on record as 0.5 fold.
